These results are taken from ChEMBL document CHEMBL5584201, “Amphiphilic tribasic galactosamines potentiate rifampicin in Gram-negative bacteria at low Mg++/Ca++concentrations” (Bioorg Med Chem Lett, 2024).

Common to all, as to type: functional
Assay [1] deals with Escherichia coli. Description: Potentiation of rifampicin-induced antibacterial activity against Escherichia coli ATCC 25922 assessed as rifampicin MIC in low salt containing media by Mueller-Hinton broth based assay.
Assay [2] relates to Escherichia coli. The assay can be described thus: Antibacterial activity against Escherichia coli ATCC 25922 in low salt containing media by Mueller-Hinton broth based assay.
Assay [3] has as its system Escherichia coli. The assay can be described thus: Potentiation of rifampicin-induced antibacterial activity against Escherichia coli ATCC 25922 assessed as fold change in rifampicin MIC in low salt containing media by Mueller-Hinton broth based assay.
The subject of assay [4] is Escherichia coli. The assay can be described thus: Potentiation of rifampicin-induced antibacterial activity against Escherichia coli clinical isolate 94393 assessed as fold change in rifampicin MIC at 1/4 MIC in low salt containing media by Mueller-Hinton broth based assay.
Assay [5] concerns Acinetobacter baumannii. Description: Potentiation of rifampicin-induced antibacterial activity against Acinetobacter baumannii 92247 assessed as rifampicin MIC at 2 to 8 microg/ml in high concentration of Ca++ and Mg++ containing media by Mueller-Hinton broth based assay. To be noted: dose 2-8 µg/ml.
Assay [6] deals with Pseudomonas aeruginosa. Description: Antibacterial activity against Pseudomonas aeruginosa PAO1 in low salt containing media by Mueller-Hinton broth based assay.
Assay [7] has as its system Acinetobacter baumannii. Description: Potentiation of rifampicin-induced antibacterial activity against multidrug resistant Acinetobacter baumannii AB027 assessed as fold change in rifampicin MIC at 1/4 MIC in low salt containing media by Mueller-Hinton broth based assay.
Assay [8] deals with Escherichia coli. Description: Potentiation of rifampicin-induced antibacterial activity against Escherichia coli […] assessed as fold change in rifampicin MIC at 2 to 8 microg/ml in high concentration of Ca++ and Mg++ containing media by Mueller-Hinton broth based assay. To be noted: dose 2-8 µg/ml.
For assay [9], the system named is Acinetobacter baumannii. The assay can be described thus: Antibacterial activity against Acinetobacter baumannii ATCC 17978 in low salt containing media by Mueller-Hinton broth based assay.
Assay [10] deals with Acinetobacter baumannii. Description: Antibacterial activity against Acinetobacter baumannii 92247 in high concentration of Ca++ and Mg++ containing media by Mueller-Hinton broth based assay.
Assay [11] relates to Pseudomonas aeruginosa. The assay can be described thus: Potentiation of rifampicin-induced antibacterial activity against Pseudomonas aeruginosa PAO1 assessed as rifampicin MIC in low salt containing media by Mueller-Hinton broth based assay.
In assay [12] the test system is Pseudomonas aeruginosa. Description: Potentiation of rifampicin-induced antibacterial activity against Pseudomonas aeruginosa PAO1 assessed as rifampicin MIC at 2 to 8 microg/ml in high concentration of Ca++ and Mg++ containing media by Mueller-Hinton broth based assay. As to conditions: dose 2-8 µg/ml.
The test system of assay [13] is Pseudomonas aeruginosa. Description: Potentiation of rifampicin-induced antibacterial activity against Pseudomonas aeruginosa PA262 assessed as rifampicin MIC at 2 to 8 microg/ml in high concentration of Ca++ and Mg++ containing media by Mueller-Hinton broth based assay. As to conditions: dose 2-8 µg/ml.

For `CCCCCCCCO[C@@H]1O[C@H](CN)[C@H](N)[C@H](OCc2ccc3ccccc3c2)[C@H]1N`, the MIC in the assay with Escherichia coli [1] was 2 µg/mL; in the assay on Escherichia coli [2], 8 µg/mL; in the assay with Acinetobacter baumannii [5] it was 4 µg/mL; with Pseudomonas aeruginosa [6] it was 32 µg/mL; in the assay on Acinetobacter baumannii [9], 16 µg/mL; against Acinetobacter baumannii [10], at least 64 µg/mL. Further, the MIC in the assay on Pseudomonas aeruginosa [11], in the assay on Pseudomonas aeruginosa [12] and with Pseudomonas aeruginosa [13] was 8 µg/mL each time. Also, the “fold change (FC)” value amounted to 128 in the assay with Escherichia coli [3], 64 in the assay on Escherichia coli [4], 64 in the assay on Acinetobacter baumannii [7] and 1 in the assay with Escherichia coli [8].

As a reminder, the MIC is the least concentration at which growth counts as inhibited.
